Assay results taken from ChEMBL document CHEMBL5303304, “EUbOPEN Chemogenomics Library - IncuCyte” (2023).
Several values for one entry are separate records, joined by “and”; a condition that tells them apart may be missing. Identical values can stand only once.

How the values were obtained:
Format in all cases: toxicity, cell-based
[1] = test system: HEK-293T; test: Incucyte cell viability with HEK293T; conditions: human, 10 µM, compound concentration 10 uM
[2] = test system: Fibroblast; test: Incucyte cell viability with human fibroblast; conditions: 10 µM, compound concentration 10 uM
[3] = test system: U2OS; test: Incucyte cell viability with U2OS; conditions: human, 10 µM, compound concentration 10 uM
Also: unitless GR value; below 1 slowed growth and below 0 cell loss.

SMILES | Growth Rate ([1]; 18 h, replicate number 1) | Growth Rate ([1]; 18 h, replicate number 2) | Growth Rate ([1]; 24 h, replicate number 1) | Growth Rate ([1]; 24 h, replicate number 2) | Growth Rate ([2]; 6 h, replicate number 1) | Growth Rate ([2]; 6 h, replicate number 2) | Growth Rate ([2]; 12 h, replicate number 1) | Growth Rate ([2]; 12 h, replicate number 2) | Growth Rate ([2]; 18 h, replicate number 2) | Growth Rate ([2]; 24 h, replicate number 2) | Growth Rate ([3]; 6 h, replicate number 2) | Growth Rate ([3]; 12 h, replicate number 2) | Growth Rate ([2]; 18 h, replicate number 1) | Growth Rate ([2]; 24 h, replicate number 1) | Growth Rate ([3]; 24 h, replicate number 2) | Growth Rate ([3]; 6 h, replicate number 1) | Growth Rate ([3]; 18 h, replicate number 1) | Growth Rate ([2]; 0 h, replicate number 2) | Growth Rate ([3]; 24 h, replicate number 1) | other results
Cl.O=C(c1ccc(-c2ccc(Cl)cc2)o1)N(Cc1ccccn1)c1ccc(N2CCNCC2)cc1 | 0.76 | 0.43 | 0.48 | 0.25 | -0.62 | -1 | -1 | -0.6 | -0.43 | -0.32 | 0.57 | 0.87 |  |  |  |  |  |  |  | Growth Rate ([1]; 12 h, replicate number 2): 0.52; Growth Rate ([3]; 0 h, replicate number 2): -0.97
CN(C)Cc1cccc(NC(=C2C(=O)Nc3cc(C(=O)N(C)C)ccc32)c2ccccc2)c1 |  |  |  | 0.95 | 0.08 |  | 0.68 |  |  |  | 0.99 | 0.73 | 0.68 | 0.47 | 0.8 |  |  |  |  | Growth Rate ([3]; 18 h, replicate number 2): 0.82
O=C(CCSCc1ccco1)NNC(=O)N1Cc2ccccc2Oc2ccc(Cl)cc21 | 0.93 |  | 0.96 |  | 0.64 | -0.43 | 0.82 | 0.45 | 0.53 | 0.72 |  | 0.92 | 0.92 | 0.8 | 0.92 | 0.95 |  |  |  | Growth Rate ([2]; 0 h, replicate number 1): -1
CN(c1ccc(C(F)(F)F)cc1)S(=O)(=O)c1ccc(C(=O)Nc2nc(-c3ccccn3)cs2)cc1 |  | 0.84 | 0.82 | 0.76 |  |  |  |  |  | 0.82 | 0.76 | 0.65 |  | 0.92 | 1 |  | 0.94 |  |  | Growth Rate ([3]; 0 h, replicate number 1): -1
COc1cc(-c2cc3ncccc3c(O[C@H](C)[C@H]3CNC(=O)C3)n2)cc(OC)c1OC.Cl |  | 0.97 |  | 0.86 | 0.62 |  | 0.89 | 0.61 and 0.94 | 0.86 |  |  |  | 0.88 |  | 0.94 |  | 0.92 | -0.01 | 0.78 | Growth Rate ([2]; 0 h, replicate number 1): -1; Growth Rate ([3]; 12 h, replicate number 1): 0.79
COc1cc(Oc2nc(-c3ccc(NC(=O)C4CCOC4)cc3)nn3c(C)nc(C)c23)cc(OC)c1OC (stereo unspecified) |  |  | 0.96 |  |  |  |  | 0.75 |  |  |  | 0.94 |  |  |  | 0.98 |  | 0.03 | 0.87 | 
COc1cc2nc(C)nc(NC3(c4ccccc4)CC3)c2cc1OC | 0.87 |  | 0.93 |  | 0.99 | 0.66 | 0.99 | 0.7 |  |  |  | 0.97 |  |  |  | 0.52 | 0.94 | 0.11 | 0.86 | Growth Rate ([3]; 12 h, replicate number 1): 0.94
COc1ccc(S(=O)(=O)N2CCOCC2)cc1Nc1ccc2c(n1)N(C1CCN(C)CC1)[C@H](C)C(=O)N2C | 0.97 |  | 0.66 | 0.62 | 0.47 | -0.45 | 0.73 | 0.26 | 0.48 | 0.41 |  | 0.86 | 0.88 | 0.86 | 0.72 |  | 0.83 | 0.55 | 0.45 | Growth Rate ([3]; 0 h, replicate number 2): 0.58; Growth Rate ([3]; 18 h, replicate number 2): 0.79
